Data taken from PMC12282428 (Virologica Sinica, 2025).

Target: T1, PEDV RdRp (Nsp12) (Porcine epidemic diarrhea virus, UniProt K4NS01)
T1 sequence (K4NS01 4101-5027): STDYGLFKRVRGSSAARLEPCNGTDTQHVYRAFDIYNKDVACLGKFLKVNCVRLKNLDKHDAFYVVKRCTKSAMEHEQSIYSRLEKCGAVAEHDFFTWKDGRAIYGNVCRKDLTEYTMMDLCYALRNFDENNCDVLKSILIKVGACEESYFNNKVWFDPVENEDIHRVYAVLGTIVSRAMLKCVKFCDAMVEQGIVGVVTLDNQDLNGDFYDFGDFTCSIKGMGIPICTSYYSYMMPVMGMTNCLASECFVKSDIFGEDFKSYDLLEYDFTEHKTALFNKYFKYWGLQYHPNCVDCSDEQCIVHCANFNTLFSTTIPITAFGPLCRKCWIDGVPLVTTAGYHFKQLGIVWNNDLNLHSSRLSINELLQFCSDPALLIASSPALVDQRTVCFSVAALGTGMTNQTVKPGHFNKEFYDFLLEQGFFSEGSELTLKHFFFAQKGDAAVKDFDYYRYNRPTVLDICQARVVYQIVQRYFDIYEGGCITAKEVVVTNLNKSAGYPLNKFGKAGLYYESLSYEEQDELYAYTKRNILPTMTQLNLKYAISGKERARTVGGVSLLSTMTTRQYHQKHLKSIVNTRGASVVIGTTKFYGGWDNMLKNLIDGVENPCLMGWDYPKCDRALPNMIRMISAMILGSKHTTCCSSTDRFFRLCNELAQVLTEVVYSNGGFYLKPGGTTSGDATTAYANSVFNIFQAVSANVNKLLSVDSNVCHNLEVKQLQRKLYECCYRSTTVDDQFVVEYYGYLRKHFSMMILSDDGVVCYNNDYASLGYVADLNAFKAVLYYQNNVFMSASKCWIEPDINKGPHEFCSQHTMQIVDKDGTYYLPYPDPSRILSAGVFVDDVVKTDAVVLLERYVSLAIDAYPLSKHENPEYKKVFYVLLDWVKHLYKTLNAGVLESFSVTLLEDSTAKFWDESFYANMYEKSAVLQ
Experiment: CoV-RdRp-Gluc luciferase reporter assay in transfected HEK-293T cells
Type: cell-based

CC(C)/N=c1\cc2n(-c3ccc(Cl)cc3)c3ccccc3nc-2cc1Nc1ccc(Cl)cc1 [clofazimine]
IC50: 136 nM
